Measurements taken from article PMC12363935, “Unc-51 Like Kinase 3 (ULK3) is essential for autophagy and cell survival in multiple myeloma” (Research Square, 2025).

What was measured:
[1] = system: MM cells (5TGM1, 8226, and U266); experiment: MTS assay on MM cells; assay type: cell-based
Method: (§1) Myeloma cell lines were plated in 96-well plates (2 × 10^5 cells/ml) and treated with vehicle control (HPβCD) and test compounds. Cell viability was assessed at 48 hours using the MTS assay (CellTiter 96, CAT# G3582). Absorbance was measured at 490 nm after a 2-hour incubation at 37°C. IC50 values were calculated using Prism software (version 9.3.1), and synergy matrices were generated with Combenefit Software.

U266-PSR = experiment: MTS cell viability assay; assay type: cell-based; conditions: 48h, Fig. 6E, read-out: IC50, Survival (%)
Method: as §1

U266 = experiment: MTS cell viability assay; assay type: cell-based; conditions: Homo sapiens, U-266; U266, 48h, Fig. 6E; read-out: IC50, Survival (%)
Method: as §1

U266-Luc MM cells = experiment: U266-Luc in vivo model, tail vein injection; conditions: 10 mg/kg/day, M-F, from day 20; days post-tumor inoculation
Method: For the U266-Luc model, 1 × 10^6 cells (100 μl/PBS) were tail vein injected into 4- to 6-week-old female and male NSG mice. […] Endpoint was represented by hind limb paralysis or >20% weight loss. When sacrificed, tumors tibiae were harvested and fixed in 10% neutral buffered formalin for 24 hours. Bioluminescent signal is reported as the average of the sum of dorsal and ventral signal of the mice/group/timepoint. […]
28 Animal Experimentation: All animal experiments were performed with approval from the
29 Moffitt/University of South Florida Institutional Animal Care and Use Committee (Protocol
31 validation of MA9 efficacy (Figure 4), we initially included n = 10 mice per treatment group:
Randomization based on sex, weight,
33 and initial tumor burden was conducted, followed by treatment with either vehicle control (n = 6),
35 Tumor progression was tracked via bioluminescence: endpoint was paralysis or >20% weight loss.
36 Experiments were blinded. […]
38 For MA9 therapy efficacy, mice were treated with vehicle (n=10) or MA9 (10 mg/kg/day,
39 subcutaneously, M-F from day 20; n=10) (Supplementary Fig. 7E, F). Survival and toxicity
40 (weight, clinical signs) was monitored.
43 Luciferase-labeled MM cells 5TGM1-Luc (RRID: CVCL_VI66) and U266-Luc (RRID: […]
51 cells (all from the ATCC, USA) were routinely cultured at 37 °C in Roswell Park Memorial
53 FBS1) and penicillin/streptomycin (hereafter, complete medium).
54 Cells were not used for five days following PI-treatment. All myeloma cell lines were […]

[2] = system: autophagy proteins in U266 MM cells; experiment: Immunoblot densitometry of autophagy proteins; assay type: cell-based, Human; conditions: U266, 6h, MA9-060 1μM, JQ1 10μM, CQ 1μM; for LC3II densitometry: CTRL 0.34; for LC3I densitometry: CTRL 3.01; for ULK1 densitometry: CTRL 7.21; for ULK3 densitometry: CTRL 15.17
Method: Figure 3. Anti-myeloma activity of the MA9–060 autophagy inhibitor. A. Chemical structure of the autophagy inhibitor MA9–060. […] Chloroquine (CQ) (1μM) served as a positive control for autophagy inhibition. C. […] Hoechst 33342 dye appears here as the nuclear blue staining (Multiple comparisons ANOVA, p <0.0001).
157 5872S). Protein concentration was quantified by Thermo Scientific™ Pierce™ BCA™ Protein
30 μg protein was loaded to 10%-15% gel and ran at
159 100V for 2 hours. Later protein was transferred to PVDF membrane and blocked with 5% skimmed
160 milk in TBST (10 mM Tris/HCl pH8.0, 0.12M NaCl, 0.1% Tween 20) containing 5% BSA [8] for
163 at 4°C overnight. Membranes were washed 3 times,10 minutes with TBS. Then incubated with
164 appropriate secondary antibodies at 1:1000 ratio in skimmed milk or 2% BSA. The membranes
165 were washed again 3 times for 10 minutes with TBST. ECL reagents were added to the membrane
166 and blot was developed by LICOR Imaging Studio.
167 All immunoblotting assays were performed at least in three replicates and representative
168 images are shown. Commercially available antibodies and their dilutions are listed in
169 Supplementary Table 5. Immunoblotting images were acquired and quantified using LICOR
170 Image Studio Quant software. […]

[3] = system: autophagy in U266 MM cells; experiment: CYTO-ID autophagy detection; assay type: cell-based, Human
Method: Autophagic activity was monitored using the Cyto-ID Green Autophagy Detection Kit (Enzo Life Sciences, ENZ-51031-K200, USA) as per manufacturer’s instructions. Further details and protocols for quantitative analysis by Flow Cytometry and Confocal Microscopy are provided in Supplementary Materials.
248 80% confluence. Cells were pelleted again and re-suspended in Resuspension Buffer R (Neon 10
249 μl kit Invitrogen) to a final concentration of 1 × 10^7 cells/ml. 1 × 10^6 cells were then transferred to
250 a sterile 1.5 ml microcentrifuge tube (Sarstedt), brought to 10 μl final volume of cell suspension
251 with Buffer R, and mixed with Alt-R CRISPR-Cas9 crRNA: Hs.Cas9.ULK3.1.AA (position
253 […]), (Integrated DNA Technologies). Alt-R CRISPR-Cas9
254 Negative Control RNA #1 (CAT# 1079138) was used in NTC control. Cells were counted,
255 electroporated and seeded in a 24-well plate with 0.5 ml of pre-warmed supplemented RPMI
258 Measurement of autophagic activity - CytoID Assay
260 autophagic compartments. Cells were washed and treated with 1 μM tested compound or vehicle
261 control for 6h under standard tissue culture conditions. […]
270 later, cells were washed and assessed by flow cytometry. […]
272 compensation and fluorescence-minus-one (FMO) controls were generated in parallel. […]
273 fluorescence intensity (MFI) and percentage of Cyto-ID Green-expressing MM singlet live (DAPI […]

With `N#CC[C@H](C1CCCC1)n1cc(-c2ncnc3[nH]ccc23)cn1` [ruxolitinib] the “effect on cell survival” value [1] was “no effect”.

With `CCN(CC)CCCC(C)Nc1ccnc2cc(Cl)ccc12` (centres unmarked) [CQ, Chloroquine] the IC50 (U266-PSR) was 8.7 mM, the IC50 (U266) was 0.055 mM and the median survival (U266-Luc MM cells) was 81.5 days. The LC3II densitometry [2] was 0.14, the LC3I densitometry [2] was 1.69 and the ULK1 densitometry [2] was 0.78. The ULK3 densitometry [2] was 11.1.

`Cc1sc2c(c1C)C(c1ccc(Cl)cc1)=N[C@@H](CC(=O)OC(C)(C)C)c1nnc(C)n1-2` [JQ1] gave a median survival (U266-Luc MM cells) of 90.5 days, an LC3II densitometry [2] of 0.40 and an LC3I densitometry [2] of 3.36. For the same compound, the ULK1 densitometry [2] was 6.20, the ULK3 densitometry [2] was 16.81 and the effect on autophagy [3] was “no effect”.
